Patent publication US20180177749A1, “USE OF CYP EXPRESSION TO DIRECT THERAPEUTIC INTERVENTION IN CANCER” (REGENTS OF THE UNIVERSITY OF MINNESOTA, priority 2016, published 2018)
Where two headings read alike, the source gives them in different places.

Columns and labels:
T47D = experiment: Measurement of OCR and ECAR, T47D; format: cell-based, human; conditions: 20 and 40 μM
Method: (§1) Cells were maintained in growth medium consisting of 10% FBS at 37° C. with 5% CO2 and seeded at 100,000 cells per well in XF24-well cell culture microplates (Seahorse Bioscience, North Billirica, Mass.). Concentrated stocks of HBB were prepared in DMSO. HBB was diluted to 10× working concentration in XF assay medium (a non-buffered medium including 2 mM L-glutamine but no sodium bicarbonate (buffering agent), glucose, or sodium pyruvate). Assays were performed in the XF Extracellular Flux Analyzer (Seahorse Bioscience that measures uptake and excretion of metabolic end products in real time). Oxygen consumption rate (OCR) and extracellular acidification rate (ECAR) were measured using an XF Assay Kit. OCR is reported in pmoles/minute and ECAR in mpH/minute. Before analysis, the cells were switched from culture medium to XF assay medium. After baseline measurements, 75 μl of HBB prepared in assay medium was injected into each well to reach final working concentrations. After addition of HBB, OCR and ECAR were measured at 18-minute intervals. There were 5 replicates was performed for each data point for MCF-7, MDA-MB-231, T47D and MDA-MB-435 cell lines. There were 6 replicates for the studies of the 3-18 and 4-14 cell lines.

MDA-MB-435/LCC6 = experiment: Measurement of OCR and ECAR, MDA-MB-435/LCC6; format: cell-based; conditions: 20 and 40 μM
Method: as §1

[1] = MTD for daily dosing by two-fold dose escalation in tumor-bearing mice; format: in vivo
[2] = Plasma concentration after ip dosing; format: in vivo, mice; conditions: 1 hour after the daily dose, 4 mg/kg/day ip
MCF-7 cells = experiment: JC-1 mitochondrial membrane potential staining, MCF-7; format: cell-based, human; conditions: HBB 20 μM 4 hours, (±)-14,15-EET 1 μM
Method: Cells were grown in chamber slides at 37° C. with 5% CO2 and treated with DMSO or HBB for 4 hours before JC-1 dye was added for the MCF-7 or MDA-MB-231 cell line. […] Images of red fluorescence (590 nm) and green fluorescence (530 nm) were acquired using an Olympus 1X70 microscope fitted with an Olympus DP70 digital camera (Olympus, Tokyo, Japan).

CYP2C8 = target: T1, CYP2C8 (Homo sapiens, UniProt P10632); experiment: Recombinant microsomal CYP-mediated EET biosynthesis (CYP2C8 Supersomes); format: biochemical; parameters: host or cells: insect cells (microsomes)
T1 sequence (P10632 1-490): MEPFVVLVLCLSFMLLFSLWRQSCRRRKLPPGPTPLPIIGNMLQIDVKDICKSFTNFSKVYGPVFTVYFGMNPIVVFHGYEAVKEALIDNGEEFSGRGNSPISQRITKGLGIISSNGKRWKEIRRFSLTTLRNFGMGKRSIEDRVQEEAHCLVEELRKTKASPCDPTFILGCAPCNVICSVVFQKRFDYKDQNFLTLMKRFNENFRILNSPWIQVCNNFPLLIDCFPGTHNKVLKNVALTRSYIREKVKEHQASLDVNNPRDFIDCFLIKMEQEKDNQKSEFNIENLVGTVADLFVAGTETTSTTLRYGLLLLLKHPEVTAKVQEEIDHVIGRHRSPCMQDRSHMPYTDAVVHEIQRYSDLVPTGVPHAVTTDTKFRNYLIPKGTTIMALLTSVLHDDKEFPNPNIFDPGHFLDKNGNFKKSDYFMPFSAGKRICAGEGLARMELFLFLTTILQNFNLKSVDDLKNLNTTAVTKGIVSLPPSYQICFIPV
Method: Samples were submitted to liquid chromatography-electrospray ionization/multiple reaction monitoring/mass spectrometry (LC-ESI/MRM/MS) analysis in a Thermo Electron Quantum Discovery Max triple quadrupole mass spectrometer (Thermo Finnigan, San Jose, Calif.) coupled with an Agilent 1100 HPLC (Santa Clara, Calif.), using argon as the collision gas. Negative ion monitoring was performed at the following diagnostic product ions: 319 m/z→155 m/z for 8,9-EET; 319 m/z→179 m/z for 11,12-EET; 319 m/z→219 m/z for 14,15-EET; 339 m/z→163 m/z for 8,9-[13C20]EET; 339 m/z→233 m/z for 11,12-[13C20]EET; and 339 m/z→259 m/z for 14,15-[^13C20]EET. Base-line resolution of EET regioisomers was achieved on a Phenomenex Luna C18 (2) reverse phase capillary column (250×0.5 mm, 5-μm particles) using the following mobile phase combinations: isocratic 5% B for 5 min, gradient 5-70% B for 5 min, hold at 70% for 30 min and then 95% for 10 min; A: 0.01% acetic acid in water, B: 0.01% acetic acid in acetonitrile; […] flow rate. A standard curve was obtained by linear regression of the peak area ratio of authentic EET regioisomers against internal standards. The amount of EETs in samples was calculated according to the standard curve. The (±)-5,6-EET regioisomer was not measured because it undergoes rapid internal degradation.
CYP3A4 or 2C8 Supersomes™ (BD Biosciences) were incubated at 37° C. for 30 min in the presence of AA (5 μM) in […] Tris-HCl, pH 7.4, containing 1 mm EDTA and 1 mm NADPH. Reactions were terminated by adding methylene chloride (0.5 ml). Samples were centrifuged at 3,000 rpm for 10 min and 150 μl of the organic phases were evaporated under nitrogen. […] Reaction extracts were chromatographed under the conditions described above, and ions of 319 m/z, corresponding to AA monooxygenation products, were selectively monitored in negative mode. Concentrations of EETs generated by CYP Supersomes™ were calculated by linear regression against standard curve generated with EET standards.

For CCCCCCNC(=N)NC(=N)NCc1ccccc1 [HBB, N1-hexyl-N5-benzyl-biguanide], which “reduction of OCR and ECAR” value (T47D) is on record?
The value was “significant vs. vehicle”.

And the “reduction of OCR and ECAR” value (MDA-MB-435/LCC6)?
The value was “significant vs. vehicle”.

And the lethality ([1]; 8 mg/kg/day ip, cohorts of 5 tumor-bearing mice)?
Its lethality is “animal deaths within 3 days”.

And the MTD ([1]; athymic nude (Foxn1nu/Foxn1nu), mouse, in vivo, ip)?
The MTD was 4 mg/kg/day.

What about the plasma concentration [2] of the same compound?
Its plasma concentration is 530 nM.

What about the “mitochondrial membrane potential (ΔΨm), JC-1” value (MCF-7 cells) of the same compound?
Its value is “caused mitochondrial depolarization”.

And the IC50 (CYP2C8; read-out: IC50, CYP2C8 synthesis of (±)-8,9-EET)?
The IC50 was 65 µM.

What about the IC50 (CYP2C8; read-out: IC50, CYP2C8 synthesis of (±)-11,12-EET) of the same compound?
Its IC50 is 50 µM.

And the IC50 (CYP2C8; read-out: IC50, CYP2C8 synthesis of (±)-14,15-EET)?
The IC50 was 45 µM.
